Source: patent US11248022B2, “Glypican-3 peptide reagents and methods” (THE REGENTS OF THE UNIVERSITY OF MICHIGAN, priority 2017, dated 2022)
Where two headings read alike, the source gives them in different places. Ends that are not written are not given here.

Columns and labels:
[1] = system: GPC3 positive tumor (from Hep3B cells); assay: In vivo whole body fluorescent imaging of HCC xenograft
Method: Mice bearing HCC xenograft tumor (arrowheads) were i.v. injected with 250 μL of 300 μM near NIR GPC3 targeting peptide ALL*-Cy5.5, scrambled control peptide QLE*-Cy5.5 and unlabeled Cy5.5 free dye alone. ALL*-Cy5.5 was also injected in mice bearing GPC3 negative tumor (from SK Hep-1 cells, arrows) as control of EPR effect. Pre-injection imaging confirmed no autofluorescence was present.

[2] = system: Hep3B human HCC cells; assay: Confocal microscopy of peptide binding to Hep3B cells; format: cell-based; details: Hep3B cells, confocal microscopy
Method: (§1) FIGS. 6-2A-Q show validation of specific peptide binding to cells in vitro. […] The Hep3B versus SK-Hep1 difference was also larger for antibody than QLE (P=2.3×10^−8, 6.0-fold larger). Intensity was measured with 6 replicates per condition and fitted to an ANOVA model with terms for 9 means to log-transformed data. […] We further validated specific peptide binding to GPC3 using siRNA knockdown. […] Q) Quantified fluorescence intensities. The siCL vs siGPC3 difference was 7.4 times bigger for ALL than the same difference for QLE (P=7.8×10^−5), and the difference for antibody was 8.9 times bigger than for QLE (P=2.5×10^−5), by ANOVA on log-transformed data. Results are an average of 6 images collected independently.
(§2) On confocal microscopy, it was shown that ALL*-Cy5.5 binds to the surface (arrows) of cells with different levels of GPC3 expression. […] GPC3 is highly overexpressed in Hep3B cell cytosol and membrane while moderately expressed in HepG2 cells. No GPC3 expression is observed in SK-Hep1 cells. Tubulin serves as loading control for either cytosol or membrane fractions loaded.

[3] = system: HepG2 human HCC cells; assay: Confocal microscopy of peptide binding to HepG2 cells; format: cell-based; details: HepG2 cells, confocal microscopy
Method: as §1, §2

[4] = system: SK-Hep1 cells; assay: Confocal microscopy of peptide binding to SK-Hep1 cells; format: cell-based, human
Method: as §1, §2

[5] = molecular target: T1, GPC3 (Homo sapiens, UniProt P51654); assay: siRNA knockdown of GPC3 in Hep3B cells, confocal fluorescence; format: cell-based; details: Hep3B cells transfected with non-targeting siRNA (siCL)
T1 construct: endogenous in cells; host or cells: Hep3B human HCC cells (siCL control vs siGPC3 knockdown); also HepG2; SK-Hep1 as GPC3-negative control
T1 sequence (P51654 25-554): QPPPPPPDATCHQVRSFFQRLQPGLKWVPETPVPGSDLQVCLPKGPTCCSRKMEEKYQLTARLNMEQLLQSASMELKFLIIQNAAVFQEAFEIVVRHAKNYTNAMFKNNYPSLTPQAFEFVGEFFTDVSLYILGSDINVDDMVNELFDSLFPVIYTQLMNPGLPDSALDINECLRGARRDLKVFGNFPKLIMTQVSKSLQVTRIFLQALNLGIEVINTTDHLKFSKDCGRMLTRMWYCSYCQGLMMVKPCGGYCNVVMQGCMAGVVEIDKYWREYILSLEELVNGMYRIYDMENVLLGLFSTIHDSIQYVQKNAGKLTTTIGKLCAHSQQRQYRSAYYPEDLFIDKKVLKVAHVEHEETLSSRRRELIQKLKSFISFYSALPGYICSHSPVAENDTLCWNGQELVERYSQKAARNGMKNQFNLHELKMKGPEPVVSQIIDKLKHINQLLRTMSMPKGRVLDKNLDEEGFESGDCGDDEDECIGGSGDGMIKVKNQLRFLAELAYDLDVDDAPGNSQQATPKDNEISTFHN
Method: as §1
The specificity of lead candidate peptide reagent binding was validated by siRNA knockdown of GPC3 in human HCC cells. The cells were transfected with siRNA to knockdown cell surface expression of GPC3. […] These cells were transfected with non-targeting siRNA (siCL) for use as control. […] FIG. 6-1D,E show ˜4-fold reduction in fluorescence intensity with both the peptide reagent and anti-GPC3 antibody, respectively, for Hep3B cells transfected with siRNA (siGPC3) to knock down GPC3 expression. […] FIG. 6-2M, N, O and P show the same result as original FIG. 6-1A, B, D and E.

[6] = system: Hep3B xenograft; assay: In vivo NIR laparoscopic imaging of HCC xenograft tumors; set-up: species or system mice; details: NIR laparoscope, 2 hours after i.v. injection, n=8
Method: Human HCC cells Hep3B and SK-Hep1 were cultured in Eagle's Minimum Essential Medium (EMEM) at 37° C. in 5% CO2, and supplemented with 10% fetal bovine serum (FBS) and 1% penicillin/streptomycin. Western blotting was performed to validate expression level of GPC3. Cells were diluted in growth factor reduced (GFR) Matrigel Matrix (Corning), and injected into one flank of female (to avoid male dominance within a cage) nude athymic mice (nu/nu, Jackson Laboratory) at 4 to 6 weeks of age with weight between 20 to 25 grams. ˜5×10^6 cells were implanted per mouse.
A standard surgical laparoscope (#49003 AA, HOPKINS® II Straight Forward Telescope 0°, Karl Storz) that is ˜10 mm in diameter and has a 31 cm length rigid sheath was adapted to collect reflectance and fluorescence concurrently. Nude mice with human HCC xenograft 2 weeks post implantation were tail vein injected with 200 μL 300 μM GPC3 peptide ALL*-Cy5.5. During imaging, the mice were anesthetized with inhaled isoflurane. We first used laparoscope with white light illumination to exam the xenograft. Laparoscopic images were taken two hours post injection in both fluorescence and reflection mode simultaneously with excitation solid state diode laser (660-S, Toptica Photonics) to deliver excitation at λex=660 nm into the fiber optic light guide. Images were collected at 5 frames/sec with a laser power of 1.2 mW. Hoechst 33342 (H1399, Life Technologies) at a dose of 10 mg/kg diluted in 200 μL of PBS was delivered intravenously via a tail vein injection to stain the cell nuclei 30 minutes before sacrificing the mouse. Xenograft tumors were resected and confocal fluorescence images were collected with Cy5.5 and DAPI filters 50 μm beneath the surface using a confocal microscope (Leica SPSX Upright 2-Photon Confocal Microscope). Following imaging, resected xenografts were fixed and formalin embedded for immunohistochemistry and H&E staining as described previously.
Fluorescence images of mouse HCC xenograft taken at 2 hrs post peptide injection were registered with corresponding reflectance images taken simultaneously. The fluorescence intensity of each pixel in the image was divided by intensity of corresponding pixel in the reflectance image in order to account for the difference in distance between each pixel and the laser source. A heat map image was generated from the resulting ratios at each pixel. Image segmentation was performed automatically by custom Matlab (Mathworks) software program using Ostu's Method [Otsu, Automatica, 11(285-296): 23-27 (1975)]. Target to background ratio of each processed image was calculated by dividing the average intensity of pixels inside the segmented tumor and that of those within 30 pixels outside of segmentation outline.

[7] = system: HCC xenograft tumor overexpressing GPC3; assay: In vivo handheld dual axes confocal endomicroscope imaging; set-up: species or system mice
Method: GPC3 expression from human HCC xenograft tumors was evaluated in real time by collecting optical sections in vivo using a handheld 5.5 mm diameter dual axes confocal endomicroscope. A solid-state diode laser (300 mW, CNI Laser Inc.) provided illumination at λex=671 nm. A parabolic mirror focused the illumination and collection beams to overlap below the tissue surface with lateral and axial resolution of 2 and 5 μm, respectively. A compact, 3D monolithic scanner located in the distal tip provided large vertical displacements and wide angular deflections to produce images in the vertical (XZ) and horizontal (XY) planes with a FOV of 1000×430 and 1000×1000 μm^2, respectively. NIR fluorescence is collected and passes through a band pass filter (FF01-716/40-25, Semrock) that transmits from 696-736 nm with >93% efficiency for detection with a photomultiplier tube (PMT, H7422PA-40, Hamamatsu) detector. The peptides were injected via the tail vain, and dissected away the skin overlying the tumor to gain access. The distal tip of the endomicroscope was placed in contact with the tumor using a drop of saline to couple the light. Laser power <2 mW on the tissue was used to avoid photobleaching. NIR fluorescence images were collected at 5 frames per sec. 3D volumetric images were reconstructed from a series of images collected in the vertical plane using Amira software (ver 5.4.3, FEI Corporation).
The probe was small enough to be comfortably held in the surgeon's hand during surgery, FIG. 12A, for in vivo imaging of biomarker expression. Its diameter was 5.5 mm and delivered 671 nm near-infrared laser at 2 mW. Mouse carrying HCC xenograft tumor overexpressing GPC3 was first injected with 250 μL 300 μM ALL*-Cy5.5 peptide intravenously and after 2 hours the probe was held in contact with exposed subcutaneous tumor to acquire in vivo peptide binding images, FIG. 12B. Images were collected in either the vertical or horizontal plane with 430 μm depth or 1000×1000 μm^2 area, respectively, at 5 frames per second. With measured lateral resolution of 2.49 μm and axial resolution of 4.98 μm, each peptide stained cell can be clearly seen (arrows). […] Strong uptake (arrows) of ALL*-Cy5.5 in tumor was captured on optical sections collected in the horizontal (1000×1000 μm^2, Video 1) FIG. 12C and vertical (1000×430 μm^2, Video 2) FIG. 12D planes, respectively. A series of vertical cross-section images were reconstructed into 3D MIP volume (Video 3), FIG. 12E.

[8] = system: Hep3B xenograft tumors; assay: Ex vivo confocal validation on Hep3B xenograft sections and normal liver; set-up: species or system mice; details: normal mouse liver sections
Excerpt: (§3) The specimens were also sectioned for collection of confocal images to perform microscopic validation of peptide binding ex vivo.

[9] = system: SK-Hep1 xenograft tumors; assay: Immunostaining on GPC3 negative SK-Hep1 xenograft sections; set-up: species or system mice; details: no GPC3 expression
Excerpt: FIGS. 18A-D show immunostaining on GPC3 negative HCC xenograft tumor.
as §3

[10] = molecular target: purified recombinant GPC3 core protein (Homo sapiens, UniProt P51654); assay: Phage display biopanning; format: binding; details: four rounds of biopanning
purified recombinant GPC3 core protein, sequence (P51654 25-554): as above
Method: A panel of candidate peptides that are specific to GPC3 was identified using phage display technology. Peptide selection was performed using a library of M13 bacteriophage that express ˜10^9 unique clones of each individual sequence [Zhou et al., Clin Transl Gastroenterol, 6:e101 (2015); Joshi et al., Bioconjug Chem, 27:481-494 (2016); Rabinsky et al., Cell Mol Gastroenterol Hepatol, 2:222-237 (2016)]. The library was biopanned against purified recombinant GPC3 core protein immobilized in a 6-well plate. Four rounds of biopanning were performed using decreasing quantity (100, 80, 60, and 40 μg) of GPC3 core protein in successive rounds to increase binding specificity. The bound phages were eluted, amplified, precipitated and tittered using standard protocols, and the enriched clones from the candidate pool were sequenced to identify the lead candidates: ALLANHEELF (SEQ ID NO: 2), GLHTSATNLYLH (SEQ ID NO: 3), SGVYKVAYDWQH (SEQ ID NO: 4) and VGVESCASRCNN (SEQ ID NO: 5).

[11] = system: Hep3B cells; assay: Competition for peptide binding on Hep3B cells; format: cell-based, human
Method: The specificity of peptide reagent binding was also validated by competition assay. Hep3B cells were grown on cover glass and incubated first with unlabeled peptides over a range of concentrations (0-500 μM), and then with ALL*-Cy5.5 peptide. The fluorescence intensities were measured using confocal microscopy. […] Differences in fluorescence intensity between the ALL*-Cy5.5 peptide reagent and control are significant at concentrations of 50 μM and greater.

[12] = system: advanced HCC; details: cited from earlier work

CCN1\C(=C/C=C/C=C/C2=[N+](CCCCCC(=O)O)c3ccc4c(S(=O)(=O)O)cc(S(=O)(=O)O)cc4c3C2(C)C)C(C)(C)c2c1ccc1c(S(=O)(=O)[O-])cc(S(=O)(=O)O)cc21 [free Cy5.5 dye, reference compound]
time of peak uptake/signal post injection ([1]; i.v. injection, whole-body NIR imaging): 0.5 h

QLE*-Cy5.5: scrambled control peptide QLELTFHANLEA (SEQ ID NO: 6) labeled with Cy5.5 via GGGSK linker (QLELTFHANLEAGGGSK-{Cy5.5}) [reference compound]
fluorescence intensity from binding to cell surface [2]: Minimal signal | fluorescence intensity from binding to cell surface [3]: Minimal signal | fluorescence intensity from binding to cell surface [4]: Minimal signal | binding to cell surface [5]: minimal binding | target-to-background (T/B) ratio [6]: 3.0±0.7 | fluorescent intensity at tumor ([7]; 2 hours after i.v. injection, n=8): 16±4 | uptake/staining in tumor on optical sections ([7]; horizontal and vertical planes): Minimal staining | staining of normal mouse liver [8]: Minimal staining | staining of xenograft sections [9]: No staining | target-to-background (T/B) ratio ([1]; 2 hours post injection, mean±SD): 1.12±0.19

QRH*-Cy5.5: label printed in b35/b133 without definition; apparently a misprint for QLE*-Cy5.5 or ALL*-Cy5.5 (QRHKPREGGGSK; not fully specified (C-terminus); also: Cy5.5 label, site not given here, QRH* code without meaning)
target-to-background (T/B) ratio [6]: 3.0±0.7

ALLANHEELF
level of enrichment in biopanning [10]: highest level of enrichment

QLELTFHANLEA [QLE*, scrambled (control) peptide, unlabeled, reference compound]
effect of unlabeled peptide on ALL*-Cy5.5 fluorescence intensity [11]: no change

CNC(=O)c1cc(Oc2ccc(NC(=O)Nc3ccc(Cl)c(C(F)(F)F)c3)cc2)ccn1 [sorafenib, Sorafenib]
survival duration ([12]; Asian patients): 6.5 months | survival duration ([12]; Caucasian patients): 7.9 months | survival advantage over placebo ([12]; clinic studies (SHARP)): ~3 months

ALLANHEELFQT [ALL*]
effect of unlabeled peptide on ALL*-Cy5.5 fluorescence intensity [11]: dose-dependent decrease | concentration of unlabeled peptide giving significant decrease in ALL*-Cy5.5 binding ([11]; unlabeled peptide 0-500 μM): ≥ 50 µM
